Test results reported in publication PMC3933693, “Novel Inhibitors of Mitochondrial sn-Glycerol 3-phosphate Dehydrogenase” (PLoS ONE, 2014).
Several values for one entry are separate records, joined by “and”; a condition that tells them apart may be missing. Equal entries are not always repeated.

Experiments:
mGPDH = target: T1, mGPDH (Rattus norvegicus, UniProt P35571); experiment: mGPDH enzymatic activity (DCPIP-linked reduction by glycerol phosphate) in frozen-thawed skeletal muscle mitochondria; assay type: biochemical
T1 construct: from tissue; host or cells: skeletal muscle mitochondria
T1 sequence (P35571 43-727): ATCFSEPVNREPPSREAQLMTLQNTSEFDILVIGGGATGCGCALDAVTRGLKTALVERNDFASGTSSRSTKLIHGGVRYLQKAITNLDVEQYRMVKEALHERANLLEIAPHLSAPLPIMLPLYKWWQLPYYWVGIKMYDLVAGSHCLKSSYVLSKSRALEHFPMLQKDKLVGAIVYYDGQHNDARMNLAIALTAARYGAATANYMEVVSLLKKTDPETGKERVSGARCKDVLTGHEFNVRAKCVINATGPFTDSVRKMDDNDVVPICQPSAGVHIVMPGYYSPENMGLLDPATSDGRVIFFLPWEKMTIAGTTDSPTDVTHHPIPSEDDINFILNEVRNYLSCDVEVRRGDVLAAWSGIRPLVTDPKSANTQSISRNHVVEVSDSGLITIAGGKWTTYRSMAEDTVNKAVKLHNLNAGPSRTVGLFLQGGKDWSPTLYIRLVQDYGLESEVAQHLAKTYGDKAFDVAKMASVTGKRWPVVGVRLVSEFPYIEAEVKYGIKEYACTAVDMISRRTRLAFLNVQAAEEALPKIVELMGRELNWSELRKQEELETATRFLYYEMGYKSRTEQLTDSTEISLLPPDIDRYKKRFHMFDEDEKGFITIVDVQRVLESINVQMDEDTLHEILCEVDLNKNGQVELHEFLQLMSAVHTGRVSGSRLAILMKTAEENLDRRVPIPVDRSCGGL
Method: Activity of mGPDH in frozen-thawed skeletal muscle mitochondria was measured as 2,6-dichlorophenolindophenol (DCPIP)-linked reduction by glycerol phosphate as described previously in the presence of 1 µM free calcium. Linear rates of change in absorbance (λ = 600 nm) were measured on the PHERAstar microplate reader and converted to rates of DCPIP reduction using an extinction coefficient of 21 mM^−1 ⋅ cm^−1 and a calculated pathlength of 0.6 cm. Kinetic parameters and inhibitor constants were determined by co-varying glycerol phosphate and novel inhibitors according to recommended procedures and calculated for each data set using GraphPad Prism. Vmax and Km were determined using hyperbolic curves fit to the Michaelis-Menten equation: rate = (Vmax ⋅ [substrate]) ⋅ (K m+[substrate])^ −1. Hill Slope and IC50 were determined using unconstrained, sigmoidal dose-response curve fits of % remaining activity against concentration of iGP. K ic and K iu were determined using plots of rate^−1 vs iGP and GP ⋅ rate^−1 vs iGP, respectively. Linear regression analysis yielded an average x-coordinate at which the best-fit lines intersect. These x-coordinates correspond to -K ic and -K iu in their respective plots. The apparent Vmax of mGPDH is dependent upon the concentration of DCPIP used, [38]. Therefore, to determine the maximal activity of mGPDH in isolated synaptosomes, DCPIP was replaced by 1 mM potassium ferricyanide and linear rates of change in absorbance (λ = 420 nm) were converted to rates of ferricyanide reduction using an extinction coefficient of 1.04 mM^−1 ⋅ cm^−1 and a calculated pathlength of 0.6 cm.

[1] = target: T2, flavin site of complex II (site IIF) (Rattus norvegicus, UniProt Q920L2); experiment: Site-specific H2O2 production from site IIF in skeletal muscle mitochondria; assay type: biochemical; details: primary screen, ∼2.5 µM, average of duplicates; palmitoylcarnitine
T2 construct: from tissue; host or cells: skeletal muscle mitochondria
How it was run: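 Isolated rat skeletal muscle mitochondria; H2O2 read by Amplex UltraRed with added SOD and HRP. Site IF/DH: 5 mM glutamate, 5 mM malate, 4 µM rotenone. Site IIF: palmitoylcarnitine or succinate with rotenone/antimycin A/myxothiazol. Site IIIQo: succinate, rotenone, antimycin A. Screen at 2.5 µM, normalised as % change from DMSO.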

cortical synaptosomes = experiment: Synaptosomal respiration (Seahorse XF24); assay type: cell-based, mouse; details: 100 µM iGP-1, 0.5 mM aminooxyacetate
Method: Synaptosomal respiration was tested in the Seahorse XF24 using published protocols, [41]. Synaptosomes (20 or 25 µg protein) were attached to polyethyleneimine and Geltrex-coated Seahorse plates by centrifugation in ionic medium, [41] containing 10 mM glucose. Attachment buffer was carefully replaced with ionic buffer containing DMSO, 100 µM iGP-1, 0.5 mM aminooxyacetate, or iGP-1 with aminooxyacetate, and either 10 mM pyruvate or 15 mM glucose. Plates were equilibrated for 20 min at 37°C then loaded into the instrument followed by measurement of basal respiration and injection of 5 µM FCCP (to induce maximal, uncoupled respiration) with 4 µg ⋅ mL^−1 oligomycin (to prevent compensatory reversal of ATP synthase). In some experiments, 10 mM oxamate was added with the FCCP/oligomycin to minimize regeneration of cytosolic NAD^+ by lactate dehydrogenase. Inhibition of the malate-aspartate shuttle was defined as the difference between maximal rates ± aminooxyacetate, expressed as % of control. Inhibition of the glycerol phosphate shuttle was the difference between maximal rates with aminooxyacetate ± iGP-1, as % of control.

T2 sequence (Q920L2 35-656): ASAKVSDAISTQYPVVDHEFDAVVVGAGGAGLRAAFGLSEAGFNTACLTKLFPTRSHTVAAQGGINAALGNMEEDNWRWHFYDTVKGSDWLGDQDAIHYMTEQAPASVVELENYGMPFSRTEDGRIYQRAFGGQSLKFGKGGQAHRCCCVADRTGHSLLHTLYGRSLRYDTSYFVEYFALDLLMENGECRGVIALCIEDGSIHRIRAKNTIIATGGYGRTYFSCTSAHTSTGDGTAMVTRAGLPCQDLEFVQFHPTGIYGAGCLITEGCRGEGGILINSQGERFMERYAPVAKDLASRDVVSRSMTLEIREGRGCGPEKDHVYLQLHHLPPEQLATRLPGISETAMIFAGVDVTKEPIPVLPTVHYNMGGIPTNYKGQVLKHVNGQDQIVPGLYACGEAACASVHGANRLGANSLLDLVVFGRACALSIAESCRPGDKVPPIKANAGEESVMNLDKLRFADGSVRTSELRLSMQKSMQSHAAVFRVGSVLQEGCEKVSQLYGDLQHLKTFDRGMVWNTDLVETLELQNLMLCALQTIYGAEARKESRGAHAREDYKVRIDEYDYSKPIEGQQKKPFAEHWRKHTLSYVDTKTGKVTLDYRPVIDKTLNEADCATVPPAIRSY
T2 sequence (P21913 31-282 partner): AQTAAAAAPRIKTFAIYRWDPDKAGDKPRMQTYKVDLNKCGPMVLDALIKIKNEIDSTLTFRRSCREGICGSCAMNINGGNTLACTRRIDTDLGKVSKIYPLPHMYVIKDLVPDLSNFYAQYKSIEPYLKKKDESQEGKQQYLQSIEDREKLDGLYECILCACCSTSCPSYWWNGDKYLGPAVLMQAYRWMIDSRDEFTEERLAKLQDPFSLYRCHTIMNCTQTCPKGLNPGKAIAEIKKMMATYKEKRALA
T2 sequence (Q641Z9 30-169 partner limits assumed): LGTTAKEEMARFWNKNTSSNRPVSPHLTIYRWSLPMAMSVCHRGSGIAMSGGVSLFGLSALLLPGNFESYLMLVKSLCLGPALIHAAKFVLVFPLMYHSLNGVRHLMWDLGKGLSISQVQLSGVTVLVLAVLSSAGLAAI
T2 sequence (Q6PCT8 57-159 partner): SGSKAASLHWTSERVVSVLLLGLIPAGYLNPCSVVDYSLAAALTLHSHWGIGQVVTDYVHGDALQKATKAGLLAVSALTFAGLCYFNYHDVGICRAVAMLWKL

- mGPDH Activity Hill Slope (mGPDH; 1 µM free calcium): 0.92 and 0.92±0.08
- IC50 (mGPDH; 1 µM free calcium, Fig. 9A): 6.3 ± 0.7 µM
- effect on mGPDH enzymatic activity (mGPDH; all concentrations tested, Fig. 5): significantly inhibited
- K iu (uncompetitive inhibitor dissociation constant) (mGPDH; co-varying glycerol phosphate and inhibitor): 14.6 ± 1.5 µM
- Ki (mGPDH; co-varying glycerol phosphate and inhibitor, read-out: K ic (competitive inhibitor dissociation constant)): 9.5 ± 1.1 µM
- IIF (% change from DMSO) [1]: 3.6%
SMILES: O=C(O)CCC(=O)Nc1ccc(-c2nc3ccccc3[nH]2)cc1 [iGP-1]
- effect on basal or maximal respiration with pyruvate (cortical synaptosomes; 10 mM pyruvate): no effect
- effect on basal and maximal respiration with glucose (cortical synaptosomes; 15 mM glucose, no oxamate): no effect
